In patent US20250289827A1, “MORPHIC FORMS OF A MUTANT BRAF DEGRADER AND METHODS OF MANUFACTURE THEREOF” (C4 THERAPEUTICS, INC., priority 2022, published 2025):
In brackets after ≈: the same amount, converted by molar mass.

Assays:
Type in all cases: physicochemical
[1] = Solubility data for Compound 1 drug substance
[2] = Equilibration under a temperature cycle (XRPD)
Method: The equilibration was executed with a stirring bar on a magnetic stirring plate at a rate of 300 rpm. The obtained suspensions were filtered through a 0.45 µm nylon membrane filter by centrifugation at 14,000 rpm. Solid parts (wet cakes) were investigated by XRPD.

[3] = Crystallization from hot saturated solutions by slow cooling; settings: for Result: slow cooling
Method: About 50 mg of Compound 1 Form A was dissolved in the minimal amount of selected solvents at 50° C. Obtained solutions were filtered through a 0.45 μm syringe membrane filter. […] Samples without precipitates at 5° C. were further cooled to −20° C. Precipitates were collected by centrifugation filtration through a 0.45 μm nylon membrane filter at 14,000 rpm. Solid parts (wet cakes) were investigated by XRPD.
Obtained solutions were filtered through a 0.45 μm syringe membrane filter. […] Obtained suspensions were cooled to 5° C. at 0.1° C./min and kept at 5° C. for about 12 h. Precipitates were collected by centrifugation filtration through a 0.45 μm nylon membrane filter at 14,000 rpm. Solid parts (wet cakes) were investigated by XRPD.

[4] = Acetone, temperature cycle 5° C. to 40° C.
[5] = Acetonitrile, temperature cycle 5° C. to 40° C.
[6] = DMF, temperature cycle 5° C. to 40° C.
[7] = Ethyl acetate, temperature cycle 5° C. to 40° C.
[8] = Isopropanol, temperature cycle 5° C. to 40° C.
[9] = Isopropyl acetate, temperature cycle 5° C. to 40° C.
[10] = Methanol, temperature cycle 5° C. to 40° C.
[11] = THF/heptane (v:v = 1:1), temperature cycle 5° C. to 40° C.
[12] = Toluene, temperature cycle 5° C. to 40° C.
[13] = temperature cycle, Acetone/water (v:v = 86:14) a.w. = 0.6
[14] = temperature cycle, Acetonitrile/water (v:v = 96:4) a.w. = 0.65
[15] = temperature cycle, DCM/methanol (v:v = 1:1)
[16] = temperature cycle, DMF/water (v:v = 30:70) a.w. = 0.9
[17] = temperature cycle, DMF/water (v:v = 73:27) a.w. = 0.6
[18] = temperature cycle, DMSO/water (v:v = 23:77) a.w. = 0.9
[19] = temperature cycle, DMSO/water (v:v = 57:43) a.w. = 0.6
[20] = temperature cycle, Methanol/water (v:v = 69:31) a.w. = 0.6
[21] = temperature cycle, THF/water (v:v = 82:18) a.w. = 0.9
[22] = temperature cycle, THF/water (v:v = 92:8) a.w. = 0.6

CCN(C)S(=O)(=O)Nc1ccc(F)c(Oc2ccc3ncn([C@H]4COC5(CCN(C(=O)CC6(O)CCN(c7cc8c(cc7F)c(N7CCC(=O)NC7=O)nn8C)CC6)CC5)C4)c(=O)c3c2)c1C#N [Compound 1, (3R)-3-[6-[2-cyano-3-[[ethyl(methyl)sulfamoyl]amino]-6-fluorophenoxy]-4-oxoquinazolin-3-yl]-8-[2-[1-[3-(2,4-dioxo-1,3-diazinan-1-yl)-5-fluoro-1-methylindazol-6-yl]-4-hydroxypiperidin-4-yl]acetyl]-1-oxa-8-azaspiro[4.5]decane]
solubility ([1]; FaSSIF, pH 6.48, fassif): 5840 µg/mL (≈ 6.1 mM) | solubility ([1]; FeSSIF, pH 4.86, fessif): 1350 µg/mL (≈ 1.41 mM) | solubility ([1]; SGF, pH 1.74, simulated gastric fluid): 6580 µg/mL (≈ 6.87 mM) | solubility ([1]; aqueous buffer, 50 mM pH 6.8 phosphate buffer solution, pH 6.76): 1530 µg/mL (≈ 1.6 mM) | solubility ([1]; aqueous buffer, 50 mM pH 7.4 phosphate buffer solution, pH 7.40): 8790 µg/mL (≈ 9.18 mM) | solubility ([1]; aqueous buffer, 100 mM pH 3.0 citrate buffer solution, pH 3.02): 2090 µg/mL (≈ 2.18 mM) | solubility ([1]; aqueous buffer, 100 mM pH 4.5 citrate buffer solution, pH 4.53): 3160 µg/mL (≈ 3.3 mM) | solubility ([1]; aqueous buffer, pH 9.0 NaOH solution, pH 8.55): 21600 µg/mL (≈ 22.5 mM) | solubility ([1]; pH 8.9, Purified water, pH 8.90): 42400 µg/mL (≈ 44.3 mM) | solubility ([1]; simulated gastric fluid, pH 1.2 HCl/KCl solution, pH 1.17): 23000 µg/mL (≈ 24 mM) | solubility ([1]; simulated gastric fluid, pH 2.0 HCl/KCl solution, pH 1.95): 4350 µg/mL (≈ 4.54 mM)

CCN(C)S(=O)(=O)Nc1ccc(F)c(Oc2ccc3ncn([C@H]4COC5(CCN(C(=O)CC6(O)CCN(c7cc8c(cc7F)c(N7CCC(=O)NC7=O)nn8C)CC6)CC5)C4)c(=O)c3c2)c1C#N [Compound 1 Form A]
Comments ([2]; 1,4-Dioxane/heptane (v:v = 1:1), temperature cycle 5° C. to 40° C.): Sticky material | XRPD (solid form after equilibration) ([2]; 2-MeTHF, temperature cycle 5° C. to 40° C., about 20 cycles): Form C (about 20 | Comments ([2]; 2-MeTHF, temperature cycle 5° C. to 40° C., after about 8 more cycles): Form C converted | Comments [2, 4]: Low crystallinity | XRPD (solid form after equilibration) [2, 4]: Form B | Comments (crystallinity) [2, 5]: Medium | XRPD (solid form after equilibration) [2, 5]: Form B | Comments ([2]; DCM/heptane (v:v = 1:1), temperature cycle 5° C. to 40° C.): Sticky material | Comments [2, 6]: Clear solution | Comments: concentration of clear solution [2, 6]: (About 500 mg/mL) | XRPD (solid form after equilibration) ([2]; Ethanol, temperature cycle 5° C. to 40° C.): Almost amorphous | Comments [2, 7]: Low crystallinity | XRPD (solid form after equilibration) [2, 7]: Form B | Comments [2, 8]: Low crystallinity | XRPD (solid form after equilibration) [2, 8]: Form A | Comments [2, 9]: Low crystallinity | XRPD (solid form after equilibration) [2, 9]: Form A | XRPD (solid form after equilibration) ([2]; MTBE, temperature cycle 5° C. to 40° C.): Almost amorphous | Comments [2, 10]: Low crystallinity | XRPD (solid form after equilibration) [2, 10]: Form B | XRPD (solid form after equilibration) ([2]; Methyl ethyl ketone, temperature cycle 5° C. to 40° C.): Almost amorphous | Comments [2, 11]: Low crystallinity | XRPD (solid form after equilibration) [2, 11]: Form B | Comments [2, 12]: Low crystallinity | XRPD (solid form after equilibration) [2, 12]: Form A | Comments ([2]; temperature cycle, Acetone/water (v:v = 36:64) a.w. = 0.9): Sticky material | Comments [2, 13]: Clear solution | Comments: concentration of clear solution [2, 13]: (About 500 mg/mL) | Comments ([2]; temperature cycle, Acetonitrile/water (v:v = 42:58) a.w. = 0.9): Sticky material | Comments [2, 14]: Medium crystallinity | XRPD [2, 14]: Form B** | Comments [2, 15]: Clear solution | Comments: concentration of clear solution [2, 15]: (About 500 mg/mL) | Comments [2, 16]: Low crystallinity | XRPD [2, 16]: Form B | Comments [2, 17]: Medium crystallinity | XRPD [2, 17]: Form B | Comments [2, 18]: Low crystallinity | XRPD [2, 18]: Form A | Comments [2, 19]: Low crystallinity | XRPD [2, 19]: Form A | Comments [2, 20]: Low crystallinity | XRPD [2, 20]: Form B | Comments [2, 21]: Clear solution | Comments: concentration of clear solution [2, 21]: (About 500 mg/mL) | Comments [2, 22]: Clear solution | Comments: concentration of clear solution [2, 22]: (About 500 mg/mL) | XRPD ([3]; slow cooling with Form B seeds, Acetone): Form B | Result ([3]; Acetone/water (v:v = 1:1)): Sticky material | Result ([3]; Acetone, placed at −20° C. for 11 days): for 11 days: clear solution | Result ([3]; Acetonitrile/water (v:v = 1:1), placed at −20° C. for 11 days): for 11 days: clear solution | Result ([3]; Acetonitrile, placed at −20° C. for 11 days): for 11 days: clear solution | Result ([3]; DCM): Sticky material | Result ([3]; Ethanol, placed at −20° C. for 10 days): for 10 days: few solids | Result ([3]; Ethyl acetate, placed at −20° C. for 11 days): for 11 days: clear solution | Result ([3]; Methyl ethyl ketone, placed at −20° C. for 11 days): for 11 days: clear solution | Result ([3]; THF): Oil material | Result ([3]; THF/water (v:v = 1:1), placed at −20° C. for 11 days): for 11 days: clear solution
